Broadly, the IC50 is the concentration that inhibits the measured activity by half.

Active and inactive are the calls of the source.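 Rule for the calls: active = IC50 below 100 nM in HeLa cells, the median call across repeat tests; inactive = IC50 above 100 nM in HeLa cells.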

System in the first experiment: not listed separately
Briefly: HeLa cell killing, TP53 mutant line, dose response, CellTiter-Glo luminescence, dry powder (AID 743087). As to conditions: HeLa viability, CellTiter-Glo luminescence, 48 h.
Take `CCN(CC)c1ccc(-c2nc(C(C)C)no2)cc1[N+](=O)[O-]`: the result was inactive.

In the next experiment the test system is HeLa viability, CellTiter-Glo luminescence, 48 h. The experiment is described as above.
Conditions: not given
On to `C[C@@H]1CC(=O)NN=C1c1ccc(N2CCCCS2(=O)=O)cc1`, for which the IC50 is 478 nM (inactive).

`CC(=O)N1CCN(c2ccc(C3=NNC(=O)CC3C)cc2F)CC1` (configuration not stated): the IC50 is > 1000 nM (inactive).

Regarding `Cc1nc2ccc(C3=NNC(=O)C[C@H]3C)cc2[nH]1`, the IC50 was > 1000 nM (inactive).

Turning to `CC1CC(=O)N(c2ccccc2)N=C1c1ccc(Cl)cc1` (configuration not stated), the IC50 was > 1000 nM (inactive).

`CC(=O)Nc1ccc(-c2n[nH]c(=O)cc2C)cc1`: the IC50 is > 1000 nM (inactive).

In the case of `CC1CC(=O)NN=C1c1ccc(N2CCN(C(=O)Cc3ccc(Cl)cc3Cl)CC2)cc1` (configuration not stated), the IC50 was > 1000 nM (inactive).

For `CC1(C)C(=O)NN=C1c1ccc([N+](=O)[O-])cc1`, the IC50 is > 1000 nM (inactive).

In the case of `CCN(CC)c1ccc(C2=NNC(=O)C[C@H]2C)cc1[N+](=O)[O-]`, the IC50 was > 1000 nM (inactive).

With `C[C@@H]1CC(=O)NN=C1c1ccc(N)c([N+](=O)[O-])c1`, the IC50 was > 1000 nM (inactive).

As for `CCN(CC)c1ccc(C2=NNC(=O)CC2C)cc1` (configuration not stated), the 50% inhibitory concentration (IC50) is 8.54 nM.

`C[C@@H]1CC(=O)NN=C1c1ccc(C2CCCCC2)cc1`: the IC50 was 7.59 nM.

With `C[C@@H]1CC(=O)NN=C1c1ccc([Si](C)(C)C)cc1`, the IC50 was 179 nM (inactive).

Regarding `Cc1cc(=O)[nH]nc1-c1ccc(N)cc1`, the IC50 was > 1000 nM (inactive).

On to `C[C@@H]1CC(=O)NN=C1c1ccc(I)cc1`, for which the IC50 was 7.02 nM.

For the compound `CC(=O)Nc1ccc(C2=NNC(=O)C[C@H]2C)cc1[N+](=O)[O-]`, the IC50 was 4.78 nM.

Regarding `O=C1CC(c2ccccc2)=NN1`, the IC50 was > 1000 nM (inactive).

As to `CC1CC(=O)NN=C1c1ccc(F)c(F)c1` (configuration not stated), the IC50 is 64.1 nM.

Take `CCN(CC)c1ccc(C2=NNC(=O)CC2C)cc1NCCOCCOCCNC(=O)OC(C)(C)C` (configuration not stated): the IC50 is > 1000 nM (inactive).

Take `CC1CC(=O)NN=C1c1cccs1` (configuration not stated): the IC50 is > 1000 nM (inactive).

As for `CCNc1ccc(C2=NNC(=O)C[C@H]2C)cc1[N+](=O)[O-]`, the IC50 was 1.08 nM.

`CC(=O)Nc1ccc(C2=NNC(=O)CC2C)cc1` (configuration not stated): the IC50 was > 1000 nM (inactive).

Consider `C[C@@H]1CC(=O)NN=C1c1ccc(N2CCCC2=O)cc1`, for which the IC50 is 133 nM (inactive).

Turning to `C[C@@H]1CC(=O)NN=C1c1ccc(N2CCN(C)CC2)cc1`, the IC50 was 297 nM (inactive).

Regarding `C#Cc1cc(C2=NNC(=O)C[C@H]2C)ccc1NC(C)=O`, the IC50 is 64.6 nM.

Consider `C[C@@H]1CC(=O)NN=C1c1ccc(-n2cnnc2)cc1`, for which the IC50 is > 1000 nM (inactive).

Turning to `CC(=O)Nc1ccc(C2=NNC(=O)C[C@H]2C)cc1Br`, the IC50 was 21.4 nM.

Take `C[C@@H]1CC(=O)NN=C1c1ccc(N2CCCCC2=O)cc1`: the IC50 was > 1000 nM (inactive).

Turning to `CC(=O)Nc1ccc(C2=NNC(=O)C[C@H]2C)cc1`, the IC50 is 4.78 nM.

In the case of `C[C@@H]1CC(=O)NN=C1c1ccc(N2CCOCC2)cc1` (racemic), the IC50 is 35.1 nM.

As for `CC1CC(=O)NN=C1c1ccc(N2CCOCC2)c(F)c1` (configuration not stated), the IC50 is 2.73 nM.

Consider `CCN(CC)c1ccc(C2=NNC(=O)C[C@H]2C)cc1`, for which the IC50 was 3.71 nM.

Take `CC(=O)Nc1ccc(C2=NNC(=O)C[C@H]2C)cc1N`: the IC50 is > 1000 nM (inactive).

Turning to `Cc1ccc(CCC(=O)N2CCN(c3ccc(C4=NNC(=O)CC4C)cc3)CC2)cc1` (configuration not stated), the IC50 was > 1000 nM (inactive).

In the case of `C[C@H]1CC(=O)NN=C1c1ccc(F)c(F)c1`, the IC50 was > 1000 nM (inactive).

Take `C[C@@H]1CC(=O)NN=C1c1ccccc1`: the IC50 is 428 nM (inactive).

As to `CC1C(=O)NN=C1c1ccc([N+](=O)[O-])cc1` (configuration not stated), the IC50 is > 1000 nM (inactive).

`CCNc1ccc(C2=NNC(=O)C[C@H]2C)cc1`: the half-inhibitory concentration (IC50) is 71 nM.

In the case of `C/C=C/c1ccc(C2=NNC(=O)C[C@H]2C)cc1`, the half-maximal inhibitory concentration (IC50) was 8.73 nM.

For the compound `C[C@@H]1CC(=O)NN=C1c1ccc(F)cc1` (racemic), the IC50 is 360 nM (inactive).

For the compound `CCN1N=C(c2ccc(N(CC)CC)cc2)[C@H](C)CC1=O`, the IC50 was > 1000 nM (inactive).

For `CCCc1ccc(C2=NNC(=O)C[C@H]2C)cc1`, the 50% inhibitory concentration (IC50) was 16.2 nM.

For the compound `CC1(C)C(=O)NN=C1c1ccc(N)cc1`, the IC50 is > 1000 nM (inactive).

Turning to `CCN(CC)c1ccc(C2=NNC(=O)CC2C)cc1N` (configuration not stated), the IC50 was 232 nM (inactive).

Regarding `CCN(CC)c1ccc(-c2n[nH]c(=O)cc2C)cc1`, the IC50 was > 1000 nM (inactive).

Consider `C[C@@H]1CC(=O)NN=C1c1ccc(N2CCCCC2)cc1`, for which the concentration for half-maximal inhibition (IC50) is 3.83 nM.

Consider `C[C@@H]1CC(=O)NN=C1c1ccc(Cl)cc1`, for which the IC50 is 32.6 nM.

Regarding `CCN(CC)c1ccc(C(=O)Nc2ccccc2)cc1[N+](=O)[O-]`, the IC50 is > 1000 nM (inactive).

As for `C[C@H]1CC(=O)NN=C1c1ccc(N2CCOCC2)c(F)c1`, the IC50 is > 1000 nM (inactive).

For `C[C@@H]1CC(=O)NN=C1c1ccc(C2=CCCCC2)cc1`, the half-inhibitory concentration (IC50) was 2.22 nM.

For `CCN(CC)c1ccc(C2=NNC(=O)CC2C)cc1NC(C)=O` (configuration not stated), the IC50 was > 1000 nM (inactive).

As for `CC1(C)C(=O)NN=C1c1ccc(Cl)cc1`, the IC50 is > 1000 nM (inactive).

For `C[C@@H]1CC(=O)NN=C1c1ccc(N2CCOCC2)cc1`, the IC50 is 13 nM.

With `CC1(C)C(=O)NN=C1c1ccc(N2CCOCC2)cc1`, the IC50 is > 1000 nM (inactive).

Turning to `CC(=O)Nc1ccc(C2=NNC(=O)C[C@H]2C)cc1C(C)=O`, the IC50 is 126 nM (inactive).

`CCN(CC)c1ccc(C2=NNC(=O)C2(C)C)cc1`: the IC50 was > 1000 nM (inactive).

`C[C@@H]1CC(=O)NN=C1c1ccc(N)c(Br)c1`: the IC50 is > 1000 nM (inactive).

As to `C[C@@H]1CC(=O)NN=C1c1ccc(F)c(F)c1`, the IC50 was 22 nM.

Take `O=C1C[C@H]2CCc3cc(N4CCOCC4)ccc3C2=NN1` (racemic): the IC50 is > 1000 nM (inactive).

For `C[C@@H]1CC(=O)NN=C1c1ccc(N2CCCOC2=O)cc1`, the IC50 is > 1000 nM (inactive).

Turning to `C[C@@H]1CC(=O)NN=C1c1ccc(-c2cncnc2)cc1`, the IC50 was 12.6 nM.

For the compound `C[C@@H]1CC(=O)NN=C1c1ccc(N2CCOCC2)c(F)c1`, the IC50 is 1.58 nM.
